Experimental data from PubChem BioAssay AID434987 (Southern Research Specialized Biocontainment Screening …, 2010).
pIC50: −log10 of the molar value. Calls of active or inactive are those of the source. The rule behind the calls is not given here.

Tested on: M. tuberculosis H37Rv growth inhibition with meropenem
Assay: dose response, H37Rv, with and without meropenem (AID 434987);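 note: growth over 7 days at 37 °C before Alamar Blue read on day 9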
[1] = M. tuberculosis H37Rv growth inhibition, measured here: IC50 without meropenem
[2] = M. tuberculosis H37Rv growth inhibition, measured here: IC90 without meropenem
[3] = measured here: IC90 with meropenem

Cc1cc(C)c(OCC(=O)Nc2nc3ccccc3[nH]2)c(C)c1
pIC50: 5.91 | pIC50 [1]: 4.66 | IC90 [2]: > 100 µM | IC90 [3]: 65.2 µM

Cc1ccn2c(CNCCn3nc(C)cc3C)c(C(=O)N3CCCCCC3)nc2c1
IC50: > 100 µM (inactive) | pIC50 [1]: < 4.00 | IC90 [2]: > 100 µM | IC90 [3]: > 100 µM

Cc1nn(Cc2ccc(Cl)cc2)c(C)c1NC(=O)CSc1nc2c(c(C(F)(F)F)n1)CCc1ccccc1-2
IC50: > 100 µM (inactive) | pIC50 [1]: < 4.00 | IC90 [2]: > 100 µM | IC90 [3]: > 100 µM

O=C(Nc1ccc2oc(-c3ccc(Cl)c(Cl)c3)nc2c1)c1ncn[nH]1
IC50: 61.9 µM (inactive) | pIC50 [1]: 4.10 | IC90 [2]: > 100 µM | IC90 [3]: > 100 µM

CCc1cc2c(=O)oc(-c3ccccc3F)nc2s1
IC50: > 100 µM (inactive) | pIC50 [1]: < 4.00 | IC90 [2]: > 100 µM | IC90 [3]: > 100 µM

O=C(Nc1nc(-c2ccc(F)c(F)c2)cs1)c1cnccn1
pIC50: 4.83 | pIC50 [1]: < 4.00 | IC90 [2]: > 100 µM | IC90 [3]: > 100 µM

COc1ccc(CNC(=O)C2CCN(S(=O)(=O)c3c(C)noc3/C=C/N(C)C)CC2)cc1
IC50: > 100 µM (inactive) | pIC50 [1]: < 4.00 | IC90 [2]: > 100 µM | IC90 [3]: > 100 µM

Cc1c(-c2ccccc2)sc(Br)c1C(=O)N1CCOCC1
IC50: > 100 µM (inactive) | pIC50 [1]: < 4.00 | IC90 [2]: > 100 µM | IC90 [3]: > 100 µM

Cc1onc(-c2c(Cl)cccc2Cl)c1/C(N)=N/OC(=O)C1CC1
pIC50: 5.69 | pIC50 [1]: < 4.00 | IC90 [2]: > 100 µM | IC90 [3]: > 25 µM

O=C(CSc1nnc(SCc2ccc(Cl)cc2)s1)c1ccc2c(c1)OCO2
IC50: > 100 µM (inactive) | pIC50 [1]: < 4.00 | IC90 [2]: > 100 µM | IC90 [3]: > 100 µM

CC1(C)CC(CCNC(=O)CCl)(c2ccccc2)CCO1 (stereo not given)
pIC50: 5.62 | pIC50 [1]: 5.04 | IC90 [2]: 34.7 µM | IC90 [3]: 8.14 µM

O=C(C1=C[C@H](c2ccc(Br)cc2)C[C@H](OCCCCO)O1)N1CCN(Cc2ccc3c(c2)OCO3)CC1
IC50: 49.4 µM (inactive) | pIC50 [1]: 4.19 | IC90 [2]: 88 µM | IC90 [3]: > 100 µM

O=C1OC(c2ccco2)=N/C1=C\c1ccc(-c2cccc(C(F)(F)F)c2)o1
IC50: 48.9 µM (inactive) | pIC50 [1]: 4.12 | IC90 [2]: > 100 µM | IC90 [3]: 53.4 µM

CC(C)CN(C(=O)CN1CCN(S(=O)(=O)c2ccccc2)CC1)c1c(N)n(CC(C)C)c(=O)[nH]c1=O
IC50: > 100 µM (inactive) | pIC50 [1]: < 4.00 | IC90 [2]: > 100 µM | IC90 [3]: > 100 µM

CCCCN(CC)S(=O)(=O)c1ccc(C(=O)Nc2nnc(CSC)o2)cc1
IC50: 17.2 µM (inactive) | pIC50 [1]: 4.60 | IC90 [2]: > 100 µM | IC90 [3]: 31.7 µM

CCOC(=O)N1CCN(CC(=O)Nc2nnc(C(F)(F)F)s2)CC1
pIC50: 4.56 | pIC50 [1]: < 4.00 | IC90 [2]: > 100 µM | IC90 [3]: 50.1 µM

CN1CCN(c2ccc(NC(=O)c3ccc(-c4cccc([N+](=O)[O-])c4)o3)cc2)CC1
IC50: 5.87 µM (inactive) | pIC50 [1]: 5.16 | IC90 [2]: 18.1 µM | IC90 [3]: 6.71 µM

CNC(=S)N/N=C(\C)c1ccc(Cl)c(Cl)c1
IC50: > 100 µM (inactive) | pIC50 [1]: < 4.00 | IC90 [2]: > 100 µM | IC90 [3]: > 100 µM

CCOC(=O)c1c(C)nc2sc(C(=O)Nc3ccccc3)c(N)c2c1-c1ccc(OC)cc1
IC50: > 100 µM (inactive) | pIC50 [1]: < 4.00 | IC90 [2]: > 100 µM | IC90 [3]: > 100 µM

CCCCNC(=O)c1onc(CSc2ccccc2C)c1C(=O)O
IC50: 45.3 µM (inactive) | pIC50 [1]: 4.09 | IC90 [2]: > 100 µM | IC90 [3]: 50.6 µM
